The values that follow come from PMC8658795 (2021).

The assay concerns DNA duplex (DNA, duplex) CAATCGGATCGAATTCGATCCGATTG
The assay can be described thus: fluorescent intercalator displacement. Particulars: K+ (50 mM KCl, 10 mM KH2PO4); 1 mM K2EDTA, pH 7.4, room temperature; thiazole orange 0.5 μM displaced (Kf 3 × 10^6 M^-1); duplex 0.25 μM.

Consider `O=C(NN1C(=O)c2c(c3c4ccccc4n([C@H]4OC[C@@H](O)[C@H](O)[C@H]4O)c3c3[nH]c4ccccc4c23)C1=O)c1ccccn1`, for which the Kb result is “(2.52 ± 0.4) × 10^5 M^-1”.

Take `NN1C(=O)c2c(c3c4ccccc4n([C@@H]4OC[C@H](O)[C@H](O)[C@H]4O)c3c3[nH]c4ccccc4c23)C1=O`: the Kb entry was “(1.24 ± 0.07) × 10^6 M^-1”.
